# Results taken from ChEMBL document CHEMBL5257113, “Development of versatile solid-phase methods for syntheses of PROTACs with diverse E3 ligands” (Bioorg Med Chem, 2023).
# Activity calls are given as the source filed them. No cut-off for these calls is given here.
# What was measured:
# [1] = target: von Hippel-Lindau disease tumor suppressor/Bromodomain-containing protein 4 (Homo sapiens) (UniProt O60885+P40337); experiment: Protac activity at VHL/BRD4 in human MCF7 cells assessed as induction of BRD4 degradation at 10 uM measured after 24 hrs by Western blotting analysis; type: cell-based
# [2] = target: E3 ubiquitin-protein ligase XIAP/Bromodomain-containing protein 4 (Homo sapiens) (UniProt P98170+O60885); experiment: Protac activity at IAP/BRD4 in human SK-MEL-28 cells assessed as induction of BRD4 degradation at 0.1 to 10 uM measured after 24 hrs by Western blotting analysis; type: cell-based; details: dose 0.1-10 µM
# E3 ubiquitin-protein ligase XIAP/Bromodomain-containing protein 4 (Homo sapiens), sequence (P98170 whole entry, looked up, other chains not shown): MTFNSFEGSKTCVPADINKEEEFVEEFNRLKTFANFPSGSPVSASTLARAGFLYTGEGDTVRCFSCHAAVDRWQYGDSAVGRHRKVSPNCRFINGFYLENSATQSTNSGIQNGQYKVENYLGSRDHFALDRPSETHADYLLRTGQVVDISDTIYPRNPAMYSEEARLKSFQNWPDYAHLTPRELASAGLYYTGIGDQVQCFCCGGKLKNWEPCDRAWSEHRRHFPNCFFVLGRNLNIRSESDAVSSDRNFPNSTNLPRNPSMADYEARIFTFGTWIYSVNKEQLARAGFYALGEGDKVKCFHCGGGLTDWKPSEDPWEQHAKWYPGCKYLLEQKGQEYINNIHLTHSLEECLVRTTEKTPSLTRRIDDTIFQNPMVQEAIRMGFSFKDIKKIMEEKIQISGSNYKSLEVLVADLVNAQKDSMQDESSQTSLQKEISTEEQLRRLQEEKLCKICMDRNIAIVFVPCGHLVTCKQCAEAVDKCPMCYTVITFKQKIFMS
# von Hippel-Lindau disease tumor suppressor/Bromodomain-containing protein 4 (Homo sapiens), sequence (P40337 whole entry, looked up, other chains not shown): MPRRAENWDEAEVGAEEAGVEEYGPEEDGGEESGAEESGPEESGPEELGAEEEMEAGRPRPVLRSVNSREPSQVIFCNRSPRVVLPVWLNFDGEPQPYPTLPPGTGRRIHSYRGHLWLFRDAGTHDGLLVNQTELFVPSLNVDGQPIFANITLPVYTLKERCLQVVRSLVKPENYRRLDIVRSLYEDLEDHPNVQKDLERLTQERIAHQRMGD
Activity [1],Activity [2],SMILES
Active,,CC1=C(C)C2C(c3ccc(Cl)cc3)=N[C@@H](CC(=O)NCCCNC(=O)CCCC(=O)N[C@H](C(=O)N3C[C@H](O)C[C@H]3C(=O)NCc3ccc(-c4scnc4C)cc3)C(C)(C)C)c3nnc(C)n3C2S1 (some centres undefined)
,Active,CN[C@@H](C)C(=O)N[C@H](C(=O)N1CCC[C@H]1c1nc(C(=O)c2cccc(OCC(=O)NCCCNC(=O)C[C@@H]3N=C(c4ccc(Cl)cc4)c4c(sc(C)c4C)-n4c(C)nnc43)c2)cs1)C1CCCCC1
inactive,,CC1=C(C)C2C(c3ccc(Cl)cc3)=N[C@@H](CC(=O)NCCOCCOCCNC(=O)CCCC(=O)N[C@H](C(=O)N3C[C@H](O)C[C@H]3C(=O)NCc3ccc(-c4scnc4C)cc3)C(C)(C)C)c3nnc(C)n3C2S1 (some centres undefined)
,Active,CN[C@@H](C)C(=O)N[C@H](C(=O)N1CCC[C@H]1c1nc(C(=O)c2cccc(OCC(=O)NCCOCCOCCOCCNC(=O)C[C@@H]3N=C(c4ccc(Cl)cc4)c4c(sc(C)c4C)-n4c(C)nnc43)c2)cs1)C1CCCCC1
